Two compounds from US5264593A, “Cholesterol lowering compounds” (Merck & Co., Inc., priority 1993, dated 1993) can be followed below.

The target in the assay is T1, squalene synthetase (human HepG2 cell enzyme) (Homo sapiens, UniProt P37268).
T1 construct: SOURCE: HEPG2 CELL LINE (Liver, hepatoblastoma, Human) ATCC No. HB 8065; endogenous in cells; host or cells: HepG2 (ATCC HB 8065), sonicated cell extract
T1 sequence (P37268 1-417): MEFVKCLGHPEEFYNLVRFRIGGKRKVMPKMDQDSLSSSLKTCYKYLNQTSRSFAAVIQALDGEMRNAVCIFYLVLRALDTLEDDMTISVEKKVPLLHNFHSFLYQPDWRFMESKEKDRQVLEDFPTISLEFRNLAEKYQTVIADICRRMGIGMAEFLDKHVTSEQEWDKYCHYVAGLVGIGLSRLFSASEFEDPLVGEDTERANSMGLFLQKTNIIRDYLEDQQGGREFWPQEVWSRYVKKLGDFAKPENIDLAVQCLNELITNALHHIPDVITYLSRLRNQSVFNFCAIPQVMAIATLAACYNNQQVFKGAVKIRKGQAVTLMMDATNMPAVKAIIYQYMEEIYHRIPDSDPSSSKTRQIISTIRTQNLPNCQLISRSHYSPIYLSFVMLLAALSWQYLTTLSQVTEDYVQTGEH
In words: Squalene Synthase Assay (human HepG2 cell enzyme, 3H-farnesyl pyrophosphate substrate). The settings on record: 3 μM 3H-farnesyl pyrophosphate, pH 7.5, 30° C., 20 minutes. It counts as biochemical. The method, then:
The intrinsic squalene synthetase inhibitory activity of the compounds of this invention was measured by the standard in vitro protocol described below:
PREPARATION OF HUMAN HepG2 cell ENZYME
1. SOURCE: HEPG2 CELL LINE (Liver, hepatoblastoma, Human) ATCC No. HB 8065
2. CELL GROWTH AND MAINTENANCE
Culture Medium: Minimum essential medium (MEM) with non-essential amino acids, sodium pyruvate, and 10% fetal bovine serum. The medium was changed twice weekly. […] The growth medium is prepared as listed below.
Subculture Procedure: Remove medium, wash with PBS, add fresh trypsin (0.25%)-EDTA (0.02%) with Hank's Balanced Salt solution and let flask stand for a minute and remove the trypsin solution. Incubate flask at 37° C. until cells detached. Add fresh medium, disperse and dispense cells into new flasks. Subcultivation ratio: 1:6.
PREPARATION of Delipidated Serum: Fetal calf serum (100 ml) and CAB-O-Sil (2 grams) stir overnight at 4° C. and centrifuge at 16,000 rpm for 5 hrs. […]
For each reaction, 55 μl of buffer mixture was taken with 5 μl of an inhibitor solution in DMSO and 10 μl of diluted enzyme (1 to 250 as described in the enzyme preparation, the final protein concentration of enzyme in the assay is 2 μg per ml.). […] 150 μl of heptane layer was then removed into a 96 deep well plate and mixed with 150 μl of scintillation fluid and the radioactivity was determined by liquid scintillation counting. […]

For `C=C(CCC12OCC(OC(C)=O)C(C(=O)O)(O1)C(OC(=O)/C=C/C(C)CC(C)CC)C2O)C(OC(C)=O)C(C)Cc1ccccc1` (stereo not drawn) [Example 1, 4-Acetate of 3,4-decarboxy-4-epi-Zaragozic Acid A], the IC50 (commonly the point on the concentration scale where inhibition reaches its midpoint) was 2.95 nM.

Turning to `C=C(CCC12OCC(OC(=O)C(C)(C)C)C(C(=O)O)(O1)C(OC(=O)/C=C/C(C)CC(C)CC)C2O)C(OC(C)=O)C(C)Cc1ccccc1` (stereo not drawn) [Example 2, 4-Trimethylacetate of 3,4-decarboxy-4-epi-Zaragozic Acid A], the IC50 is 58.2 nM.
